Assays:
[1] = tested on: spring wheat (Triticum aestivum); test: Spring wheat field trial 2011: emergence, vigor, tillering, biomass, yield; type: in vivo; details: for Spring Wheat Crop Vigor (1-5 scale): vigor scale of Example 3; for Spring Wheat Biomass: 82 DAP, aerial portion
Experimental: A field trial was conducted to evaluate the effects of NPG on plant emergence, vigor, tillering, biomass and yield in spring wheat (Triticum aestivum) planted near Breslau, Ontario, Canada, in 2011. Seed treatments included an Untreated Control, 10^−7 M NPG applied as a seed treatment, 10^−7 M NPG followed by two foliar NPG applications, 10^−6 M natural LCO, and 10^−6 M commercial LCO plus a commercial rhizobia inoculant (LCO+RI). The natural LCO was provided by Dr. Don Smith (McGill University, Montreal, Canada) and prepared as described in Example 2. Seed coating was performed by injecting 7 mL of aqueous NPG solution per 100 g wheat seed into a coating machine followed by treatment and drying. […] Seed designated for use as the Untreated Check also received the fungicide maintenance treatment.
Treated seeds were sent to the DuPont Breslau, Ontario Research Station and planted on June 8th in a loam composed of 34% sand, 48% silt and 18% clay and 2.9% organic matter. […] Spring wheat was planted at a rate of 100 kg seeds/ha to a depth of 3 cm. Weeds were controlled using 8.79 wt % fenoxyprop-P-ethyl at a rate of 770 mL/ha and a mixture of 33.33 wt % thifensulfuron methyl and 16.67 wt % tribenuron methyl at a rate of 30 g/ha. Disease was controlled using 23.6 wt % pyraclostrobin fungicide at a rate of 0.4 L/ha. All of the products used are considered industry standards and representative of what is used in commercial production.
The trial was conducted using a randomized complete block design with a plot size of 2.5 m by 8 m with 17.8 cm row spacing, 3.3 cm plant spacing and four replications.
Foliar NPG applications were performed 36 and 49 days after planting. The treatments were sprayed using a 4 nozzle hollow-cone boom and CO2 propellant at a speed of 4.5 km/h and 40 psi. The 36 day application utilized a mix size of 2.0 L and spray rate of 200 L/ha water volume. The 49 day application utilized a mix size of 3.0 L and spray rate of 300 L/ha water volume.
Plant Biomass was determined at 82 DAP by harvesting the entire aerial portion of the plants from each plot (Table 17). A non-statistically significant increase in biomass was determined for the NPG, LCO+RI, and LCO treatments compared to the Untreated Control.
Yield was determined by harvesting the entire 8 m of the plot and transforming the data to kg/ha (Table 18). Yields are not corrected for differences in emergence rates.

[2] = tested on: Spring barley (Hordeum vulgare); test: Spring barley field trial 2010: emergence, height, yield; type: in vivo; details: for Barley Yield: entire plot harvested
Experimental: A field trial was conducted to evaluate the effects of NPG on plant emergence, height, and yield in Spring barley (Hordeum vulgare) planted near Thorndale, Ontario, Canada, in 2010. Seed treatments included an Untreated Control, three concentrations of NPG, and three concentrations of a natural LCO. The natural LCO was provided by Dr. Don Smith (McGill University, Montreal, Canada) and prepared as described in Example 2. Aqueous solutions of NPG and LCO were applied at 10^−6 M, 10^−7 M and 10^−8M to barley seed using a spray nozzle and left to soak on a plastic sheet for 20 minutes. The seeds were beginning to emerge when they were planted on June 8th in a loam composed of 41% sand, 39% silt and 20% clay and 4.5% organic matter.
Barley was planted at a rate of 100 kg seed/ha to a depth of 2.5 cm. Weeds were controlled using 770 mL/ha 8.79 wt % fenoxprop-P-ethyl, and a mixture of 33.33 wt % thifensulfuron methyl and 16.67 wt % tribenuron methyl at a rate of 30 g/ha. Disease was controlled with 23.6 wt % pyraclostrobin at a rate of 0.4 L/ha. All of the products are industry standards and representative of what is used in commercial production.
The trial was conducted using a randomized complete block design with a plot size of 2 m by 8 m with a 17.8 cm row spacing, 3.3 cm plant spacing and four replications
Yield was determined by harvesting the entire plot and transforming the data to kg/ha (Table 10). Yields are not corrected for differences in emergence rates. […] It is noteworthy, however, that yield benefits may be difficult to accurately determine with the small plots used in this study.

[3] = 10^−7M seed treatment + Foliar, 35 DAP

CCCCCCC=CCCCCCCCC(=O)NC1C(OC)OC(CO)C(O)C1O [NPG, Methyl 2-deoxy-2-N-(hexadece-9,10-cis-eneoyl)-β-D-glucopyranoside]
Spring Wheat Yield ([1]; 10^−7M seed treatment): 1100a kg/ha
Spring Wheat Yield ([1]; 10^−7M seed treatment + Foliar): 1188a kg/ha
Wheat Crop Emergence ([1]; 10^−7M seed treatment + Foliar, 13 DAP): 53a %
Spring Wheat Tillering [1, 3]: 8.0a tillers/plant
Wheat Crop Emergence [1, 3]: 100a %
Spring Wheat Crop Vigor (1-5 scale) [1, 3]: 3.6a
Spring Wheat Crop Vigor (1-5 scale) ([1]; 10^−7M seed treatment + Foliar, 40 DAP): 3.5b
Spring Wheat Crop Vigor (1-5 scale) ([1]; 10^−7M seed treatment + Foliar, 52 DAP): 3.5a
Spring Wheat Biomass ([1]; 10^−7M seed treatment + Foliar): 0.198a kg/plant
Wheat Crop Emergence ([1]; 10^−7M seed treatment, 13 DAP): 53a %
Spring Wheat Tillering ([1]; 10^−7M seed treatment, 35 DAP): 9.0a tillers/plant
Wheat Crop Emergence ([1]; 10^−7M seed treatment, 35 DAP): 100a %
Spring Wheat Crop Vigor (1-5 scale) ([1]; 10^−7M seed treatment, 35 DAP): 3.4a
Spring Wheat Crop Vigor (1-5 scale) ([1]; 10^−7M seed treatment, 40 DAP): 3.5b
Spring Wheat Crop Vigor (1-5 scale) ([1]; 10^−7M seed treatment, 52 DAP): 3.4a
Spring Wheat Biomass ([1]; 10^−7M seed treatment): 0.190a kg/plant
Barley Emergence ([2]; 10^−6M seed treatment, 7 DAP): 85a %
Barley Plant Height ([2]; 10^−6M seed treatment, 7 DAP): 5.8a cm
Barley Emergence ([2]; 10^−6M seed treatment, 15 DAP): 88ab %
Barley Plant Height ([2]; 10^−6M seed treatment, 15 DAP): 12ab cm
Barley Emergence ([2]; 10^−6M seed treatment, 43 DAP): 19a %
Barley Plant Height ([2]; 10^−6M seed treatment, 43 DAP): 71a cm
Barley Yield ([2]; 10^−6M seed treatment): 3184 Kg/Hectare
Barley Emergence ([2]; 10^−7M seed treatment, 7 DAP): 86a %
Barley Plant Height ([2]; 10^−7M seed treatment, 7 DAP): 5.5ab cm
Barley Emergence ([2]; 10^−7M seed treatment, 15 DAP): 91a %
Barley Plant Height ([2]; 10^−7M seed treatment, 15 DAP): 14a cm
Barley Emergence ([2]; 10^−7M seed treatment, 43 DAP): 30a %
Barley Plant Height ([2]; 10^−7M seed treatment, 43 DAP): 71a cm
Barley Yield ([2]; 10^−7M seed treatment): 2504 Kg/Hectare
Barley Emergence ([2]; 10^−8M seed treatment, 7 DAP): 83a %
Barley Plant Height ([2]; 10^−8M seed treatment, 7 DAP): 5.6a cm
Barley Emergence ([2]; 10^−8M seed treatment, 15 DAP): 86ab %
Barley Plant Height ([2]; 10^−8M seed treatment, 15 DAP): 13a cm
Barley Emergence ([2]; 10^−8M seed treatment, 43 DAP): 25a %
Barley Plant Height ([2]; 10^−8M seed treatment, 43 DAP): 72a cm
Barley Yield ([2]; 10^−8M seed treatment): 3043 Kg/Hectare

Source: patent US20150305333A1, “USE OF GLUCOSAMINE AMIDES AS PLANT GROWTH AND YIELD ENHANCERS” (PIONEER HI-BRED INTERNATIONAL, INC., priority 2012, published 2015)
